{"source": "paper PMC9403987", "about": "(Frontiers in Oncology, 2022)", "key": {"MCF-7 tumor cells": {"test_system": "MCF-7 tumor cells", "experiment": "Orthotopic MCF-7 breast cancer xenograft", "type": "in vivo, NOD/SCID mice", "description": "The efficacy of GLR2007 was evaluated in human GBM and breast cancer orthotopic cell-line-derived xenografts in NOD/SCID mice (Shanghai Lingchang Biotechnology Co. Ltd, Shanghai, China) and BALB/c nude mice (Shanghai Sino-British SIPPR/BK Laboratory Animal Co. Ltd, Shanghai, China), and human lung, colorectal, and liver cancer subcutaneous cell-line-derived xenografts in BALB/c nude mice (Nanjing University National Resource Center, Nanjing, China, or Beijing Anikeeper Biotech Co., Beijing, China). Mice were maintained in humidity- and temperature-controlled conditions with food and water available ad libitum.\nIn two breast cancer orthotopic xenograft models, female NOD/SCID mice were subcutaneously implanted with an estrogen pellet (17β-estradiol; Innovative Research of America, Sarasota, FL, USA) one day before tumor inoculation. Mice were inoculated at 6–7 weeks old with 2×10^7 MCF-7 tumor cells plus Matrigel in a 1:1 ratio in PBS at a mammary fat pad or in the right flank. Randomization was performed when the mean tumor volume reached 135–138 mm^3."}, "BRL-3a": {"test_system": "BRL-3a", "experiment": "Cell proliferation assay", "type": "cell-based, Rattus norvegicus", "conditions": "liver, normal, 72 hours", "description": "(§1) To quantify cell proliferation, either the nuclei of live cells were counted following staining with 4’,6-diamidino-2-phenylindole (DAPI; Sigma-Aldrich, Burlington, MA, USA), or metabolically active cells were detected using a CellTiter-Glo assay (Promega Corporation, Madison, WI, USA). Cells from a range of human and mammalian tumor cell lines (American Type Culture Collection, Manassas, VA, USA) were seeded at 4000 cells per well in 100 μL of culture medium in a 96-well plate and incubated overnight at 37°C with 5% CO2. […] In the DAPI staining method, cells were washed using 1× phosphate-buffered saline (PBS; Gibco Thermo Fisher Scientific, Waltham, MA, USA), fixed with 4% formaldehyde, permeabilized with 0.2% Triton X-100 (Sigma-Aldrich), washed again, and stained with 1 μg/mL DAPI to visualize cell nuclei. Cells were washed with 1× PBS three times, and 100 μL 1× PBS was added to each well. Plates were scanned using an IN Cell Analyzer 2200 (GE Healthcare Life Sciences, Chicago, IL, USA) and the number of cells per well was recorded. In the CellTiter-Glo assay, 60 μL of CellTiter-Glo luminescent solution was added to each well after incubation with the test compounds, and the assay plate was scanned using a Tecan Infinite M1000 PRO microplate reader (Tecan Group AG, Männedorf, Switzerland) to record luminescent signals."}, "[1]": {"test_system": "breast cancer resistance protein (BCRP)", "conditions": "cited from earlier work"}, "BNL CL.2": {"test_system": "BNL CL.2", "experiment": "Cell proliferation assay", "type": "cell-based, Mus musculus", "conditions": "BNL CL.2, liver, normal, 72 hours", "description": "as §1"}, "H22": {"test_system": "H22", "experiment": "Cell proliferation assay", "type": "cell-based, Mus musculus", "conditions": "H22, liver, hepatocellular carcinoma, 72 hours", "description": "as §1"}, "Hepa1-6": {"test_system": "Hepa1-6", "experiment": "Cell proliferation assay", "type": "cell-based, Mus musculus", "conditions": "Hepa1-6, liver, hepatocellular carcinoma, 72 hours", "description": "as §1"}, "Glioma 261": {"test_system": "Glioma 261", "experiment": "Cell proliferation assay", "type": "cell-based, Mus musculus", "conditions": "Glioma 261, brain, murine glioma, 72 hours", "description": "as §1"}, "4T1": {"test_system": "4T1", "experiment": "Cell proliferation assay", "type": "cell-based, Mus musculus", "conditions": "4T1, breast carcinoma, 72 hours", "description": "as §1"}, "[2]": {"experiment": "Excretion of radioactivity in bile duct cannulated (BDC) rats", "type": "in vivo, Sprague Dawley rats", "description": "(§2) To investigate the degree to which GLR2007 penetrated organs and tissues, and the levels of excretion of the compound, rats were dosed with radiolabeled GLR2007 and whole-body autoradiography was performed. Sprague Dawley rats (Vital River Laboratory Animal Technology Co., Beijing, China; N=38, female n=19; 8–11 weeks old) were maintained in humidity- and temperature-controlled conditions on a 12-hour light/dark cycle, with food (certified rat diet; Jiangsu Xietong Pharmaceutical Biological Engineering Co., Ltd, Jiangsu, China) and water available ad libitum. […] Urine, feces, and cage rinse/wash up to 168 hours after treatment were collected from six intact rats (three male, three female); bile, urine, feces, and cage rinse/wash up to 72 hours after treatment were collected from eight bile duct cannulated (BDC) rats (four male, four female). Heart, lung, liver, spleen, kidneys, whole brain, stomach tract wall, intestinal tract wall, skeletal muscle, body fat, reproductive organs (uterus and ovary for female rats, testis and epididymis for male rats) were collected at 2, 6, 24, and 72 hours after treatment (three male, three female per time point). The total radioactivity (TRA) of plasma, bile, urine, and cage rinse/wash samples was directly analyzed by liquid scintillation counting. Fecal and tissue homogenates and blood were combusted using a PerkinElmer Oxidizer (PerkinElmer Inc.), and the generated [^14C]CO2 was captured in ^14C scintillation cocktail (Shimadzu Corporation, Kyoto, Japan), followed by analysis using a PerkinElmer Liquid Scintillation Counter (PerkinElmer Inc.). The TRA levels determined in bile, urine, feces, and cage rinse/wash were used to calculate the percentage of the administered dose excreted. Mean TRA values of whole brain and plasma at 2, 6, 24, and 72 hours were used to calculate the area under concentration–time curve from time zero to 72 hours (AUC0–72), using a noncompartmental model in Phoenix WinNonlin v6.3 software (Certara, Princeton, NJ, USA)."}, "[3]": {"experiment": "Excretion of radioactivity in intact rats", "type": "in vivo, Sprague Dawley rats", "description": "as §2"}, "P-glycoprotein": {"test_system": "P-glycoprotein", "conditions": "cited from earlier work"}, "U87-MG [4]": {"test_system": "U87-MG", "conditions": "cell line U87-MG; cited from earlier work"}, "U87-MG [5]": {"test_system": "U87-MG", "design": "method as in PMID 26149830", "conditions": "orthotopic U87-MG GBM rat xenografts; cited from earlier work"}, "MHCC97L": {"test_system": "MHCC97L", "experiment": "Cell proliferation assay", "type": "cell-based", "conditions": "Homo sapiens, liver, hepatocellular carcinoma, 72 hours"}, "[6]": {"conditions": "mouse, in vivo, po, 30 mg/kg; cited from earlier work"}, "[7]": {"conditions": "25 mg/kg daily oral, 21 days, measured day 21, 8 mice"}, "[8]": {"conditions": "25 mg/kg daily oral, 28 days, measured day 25, 10 mice"}}}
{"smiles": "CC1=Nc2c(F)cc(-c3nc(Nc4ccc(C5CCN(C)CC5)cn4)ncc3F)cc2C12CCCC2", "note": "[GLR2007]", "values": [{"measurement": "TGI (%)", "setting": "MCF-7 tumor cells; 10 mg/kg daily oral, 21 days, measured day 21, 8 mice", "value": 43.5, "unit": "%"}, {"measurement": "TGI (%)", "setting": "MCF-7 tumor cells; [7]", "value": 37.4, "unit": "%"}, {"measurement": "TGI (%)", "setting": "MCF-7 tumor cells; [8]", "value": 61.4, "unit": "%"}, {"measurement": "TGI (%)", "setting": "MCF-7 tumor cells; 50 mg/kg daily oral, 21 days, measured day 21, 8 mice", "value": 49.6, "unit": "%"}, {"measurement": "IC50", "setting": "BRL-3a", "value": 1.87, "unit": "µM"}, {"measurement": "Substrate of efflux transporter BCRP", "setting": "[1]", "value": "not a substrate"}, {"measurement": "IC50", "setting": "BNL CL.2", "value": 1.94, "unit": "µM"}, {"measurement": "IC50", "setting": "H22", "value": 1840, "unit": "nM"}, {"measurement": "IC50", "setting": "Hepa1-6", "value": 526, "unit": "nM"}, {"measurement": "IC50", "setting": "Glioma 261", "value": 1970, "unit": "nM"}, {"measurement": "IC50", "setting": "4T1", "value": 1.94, "unit": "µM"}, {"measurement": "Dose recovered in bile", "setting": "[2]; BDC rats, within 72 hours", "value": 33.3, "unit": "%"}, {"measurement": "Dose recovered", "setting": "[2]; BDC rats, within 72 hours, single oral 6 mg/100 μCi/kg", "value": 84.2, "unit": "%"}, {"measurement": "Dose predicted to be absorbed", "setting": "[2]; based on excretion in bile and urine from BDC rats", "value": "at least 42.4%"}, {"measurement": "Radioactivity excreted via feces", "setting": "[3]; single oral 6 mg/100 μCi/kg", "value": 84.10, "unit": "%"}, {"measurement": "Dose recovered", "setting": "[3]; within 168 hours, single oral 6 mg/100 μCi/kg", "value": 95.5, "unit": "%"}, {"measurement": "Dose recovered", "setting": "[3]; within the first 48 hours", "value": 74.3, "unit": "%"}, {"measurement": "Substrate of efflux transporter P-glycoprotein", "setting": "P-glycoprotein", "value": "not a substrate"}, {"measurement": "Cell cycle effect", "setting": "U87-MG [4]", "value": "induce G1 arrest"}]}
{"smiles": "CCN1CCN(Cc2ccc(Nc3ncc(F)c(-c4cc(F)c5nc(C)n(C(C)C)c5c4)n3)nc2)CC1", "note": "[Abemaciclib, abemaciclib, reference compound]", "values": [{"measurement": "TGI (%)", "setting": "MCF-7 tumor cells; [7]", "value": 33.0, "unit": "%"}, {"measurement": "TGI (%)", "setting": "MCF-7 tumor cells; [8]", "value": 48.6, "unit": "%"}, {"measurement": "IC50", "setting": "BRL-3a; Rattus norvegicus", "value": 10, "unit": "µM"}, {"measurement": "Increase in survival time compared to vehicle control", "setting": "U87-MG [5]", "value": 37.4, "unit": "%"}, {"measurement": "IC50", "setting": "MHCC97L", "value": 236, "unit": "nM"}, {"measurement": "IC50", "setting": "BNL CL.2; Mus musculus", "value": 10, "unit": "µM"}, {"measurement": "IC50", "setting": "H22; Mus musculus", "value": 3580, "unit": "nM"}, {"measurement": "IC50", "setting": "Hepa1-6; Mus musculus", "value": 1270, "unit": "nM"}, {"measurement": "IC50", "setting": "Glioma 261; Mus musculus", "value": 2520, "unit": "nM"}, {"measurement": "IC50", "setting": "4T1; Mus musculus", "value": 4.79, "unit": "µM"}, {"measurement": "Kp,uu", "setting": "[6]", "value": 0.03}]}
